Measured values from publication PMC5296932 (Angewandte Chemie (International ed. in English), 2016).
Starred links: 1 amine or outer side, 2 acyl side, 3 side chain; linkers in the order of their positions; H or OH if unused. Positions of bridges follow the written chain, without caps; N, C: chain ends. Non-standard residues stand in square brackets, D forms with d. Residues, ends and D or L forms follow the SMILES beside them. X1 = O=C(c1cc(CS[*:2])cc(CS[*:3])c1)[*:1]; 2Nal = N[C@@H](Cc1ccc2ccccc2c1)C(=O)O; Mpa = O=C(O)CCS

Experiments:
[1] = Proteolytic stability in human serum; assay type: in vitro ADME
[2] = In vitro reduction of disulfide bonds by glutathione; assay type: physicochemical; settings: 5 mM glutathione, 2 h

CC(C)C[C@@H]1NC(=O)[C@H](C)NC(=O)[C@@H]2CSSCc3cc(cc(c3)C(=O)N[C@@H](CCCNC(=N)N)C(=O)N[C@@H](CCCNC(=N)N)C(=O)N[C@@H](CCCNC(=N)N)C(=O)N[C@@H](CCCNC(=N)N)C(=O)N[C@@H](Cc3ccc4ccccc4c3)C(=O)N[C@@H](Cc3ccccc3)C(=O)N2)CSSC[C@@H](C(N)=O)NC(=O)[C@H](CCC(N)=O)NC(=O)[C@H](CC(C)C)NC(=O)[C@H](Cc2c[nH]c3ccccc23)NC(=O)[C@H](CO)NC(=O)[C@H](Cc2c[nH]c3ccccc23)NC(=O)[C@H](CC(=O)O)NC1=O [Peptide 4] (RRRR[2Nal]FCALDWSWLQC-NH2; linker N-7-16 via X1)
half-life in human serum [1]: ~ 10 h
reduction of the disulfide bonds [2]: completely reduced

CC(C)C[C@H](NC(=O)[C@H](C)NC(=O)[C@@H]1CSSCCC(=O)N[C@@H](CCCNC(=N)N)C(=O)N[C@@H](CCCNC(=N)N)C(=O)N[C@@H](CCCNC(=N)N)C(=O)N[C@@H](CCCNC(=N)N)C(=O)N[C@@H](Cc2ccc3ccccc3c2)C(=O)N[C@@H](Cc2ccccc2)C(=O)N1)C(=O)N[C@@H](CC(=O)O)C(=O)N[C@@H](Cc1c[nH]c2ccccc12)C(=O)N[C@@H](CO)C(=O)N[C@@H](Cc1c[nH]c2ccccc12)C(=O)N[C@@H](CC(C)C)C(=O)N[C@@H](CCC(N)=O)C(=O)N[C@H](C(N)=O)[C@@H](C)O [Peptide 6] ([Mpa]RRRR[2Nal]FCALDWSWLQT-NH2; disulfide 1-8; C-terminus assumed)
half-life ([1]; human serum): ~30 min
